What was measured:
testes = test: 5 day systemic administration in male SH rats, testis; assay type: in vivo, rat; settings: male SH rats, oral daily for 5 days at 50 mg/ml, day 6
BPH-1 = test: Antiproliferation assay 3 days, BPH-1 cells; assay type: cell-based; settings: 3 day treatment; read-out: BPH-1 cell line IC50
Procedure: (§1) To determine the effect of lonidamine analogs thereof on cell proliferation, the antiproliferative activity of these compounds was tested in a multi-well Alamar Blue based assay (at 3 days). Cell growth in the presence and absence of the test compound was compared, as measured by a fluoresence plate reader at excitation 550 nm and emission 590 nm (see Biosource International Inc., Tech Application Notes, Use of Alamar Blue in the measurement of Cell Viability and Toxity, Determining IC50). The following cell lines were tested: PWR-1E cells ((ATCC CRL-11611), 3500 cells/well/200 μl in Keratinocyte SFM medium (Gibco Products, Invitrogen Corporation, Carlsbad, Calif.)); DU-145 cells ((ATCC HTB-81), 4000 cells/well/200 μl in MEM Eagles medium (ATCC, Manassas, Va.)); PC3 cells ((ATCC CRL-1435), 4000 cells/200 μl in Modified HAM's F12 medium (ATCC, Manassas, Va.)); PNt2 cells ((Sigma-Aldrich, 95012613-1 VL), 4000 cells/well/200 μl in RPMI medium (Gibco Products, Invitrogen Corporation, Carlsbad, Calif.), BPH-1 ((DSMZ ACC-143), 4000 cells/well/200 μl in RPMI medium (Gibco Products, Invitrogen Corporation, Carlsbad, Calif), and NCI-H460 cells ((ATCC HTB-177), 4000 cells/well/200 μl in RPMI medium (Gibco Products, Invitrogen Corporation, Carlsbad, Calif.)). The cells were seeded in a 96 well plate in a medium specified above. After 24 hours, these plates were divided into 2 groups—Control group and 3 day treatment group. A test compound was added to each plate in the treatment groups at concentrations of […] as tabulated in Table 1 (in 2 μl 1 of 100% DMSO, final DMSO concentration 1% in all wells). For NCI-H460 cells, test compounds were added to each plate in the treatment groups at concentrations of 600, 300, 100, 30, 10, 3, and 1 μM (in 2 μl of 100% DMSO, final DMSO concentration 1% in all wells). The cells in the 3 day treatment group were incubated for 3 days, followed by staining with AlamarBlue. In the Control group, AlamarBlue was added to the plate at (i) day 0 and (ii) day 3 and measured to establish the control reading. […] For the NCI-H460 cells, the capacity of the cells to proliferate was measured 5 hours after addition of AlamarBlue using the same fluorescence plate reader as stated above.

left and right testis = test: Mouse study, 10 days oral, testis weight; assay type: in vivo; settings: C57B1/6J mice, oral daily for 10 days, 0.2-20 mg/kg
Procedure: (§2) The control mice received an equal amount of the vehicle (carboxymethylcellulose). […] Relative weights of entire prostate and individual lobes were calculated by dividing the corresponding absolute weight by the total weight of the mouse. Relative weights of the entire prostate, the dorsal prostate, and the ventral prostate were calculated by dividing the absolute weight by the total weight of the mouse. Relative weights of the left and right testis were calculated by dividing the corresponding absolute weights by the total weights of the mouse.

PNt2 cells = test: Antiproliferation assay 3 days, PNt2 cells; assay type: cell-based; settings: 3 day treatment; read-out: PNT2c cell line IC50
Procedure: as §1

PWR-1E cells = test: Antiproliferation assay 3 days, PWR-1E cells (Example 49); assay type: cell-based; settings: 3 day treatment; read-out: PWR1e cell line IC50
Procedure: as §1

mouse prostate [1] = test: Mouse study, 5 days oral, prostate weight and histomorphology; assay type: in vivo; settings: C57B1/6J mice
Procedure: The effect of Compound 1 on the mouse prostate was determined as follows. Compound 1 was orally administered daily for 5 days to male, C57B1/6J mice, (n=5, 6-8 weeks old) 1 at 2, 5, and 20 mg/kg (as a 1% carboxymethylcellulose formulation). The control mice received an equal amount of the vehicle (carboxymethylcellulose). On day 6 the mice were sacrificed and the entire prostate and the individual lobes (e.g., the dorsal lobe and the ventral lobe) were weighed to measure absolute weights. Relative weights of prostate and individual lobes were calculated by dividing the absolute weight by the total weight of the mouse. Relative weights of the entire prostate, the dorsal prostate, and the ventral prostate were calculated by dividing the absolute weight by the total weight of the mouse. Both the absolute entire prostate and relative entire prostate weights reduced in the 5 and 20 mg/kg groups compared to the control group. The histomorphology of the prostate was also analyzed and compared to that of the control or untreated prostate as illustrated in FIGS. 1-3, showing […].

mouse prostate [2] = test: Mouse study, 10 days oral, prostate weight; assay type: in vivo; settings: C57B1/6J mice, oral daily for 10 days, 0.2-20 mg/kg
Procedure: as §2

mouse prostate cells = test: In vivo viability and proliferation of mouse prostate cells (TUNEL, PCNA); settings: mice treated with 20 mg/kg, with respect to vehicle
Procedure: Prostate cells harvested from mice treated with 20 mg/kg of Compound I were assayed by the TUNEL assay (e.g., see Example 48).

[3] = oral daily for 5 days, 5 and 20 mg/kg groups vs control

With `O=C(NO)c1nn(Cc2ccc(Cl)cc2Cl)c2ccccc12` [Compound 1] the Testis shrinkage (testes) was −2.5%, the IC50 (BPH-1) was 17.5 µM and the “absolute left testis weight (FIG. 13)” value (left and right testis) was “dose dependent reduction”. For the same compound, the “absolute right testis weight (FIG. 12)” value (left and right testis) was “dose dependent reduction”, the “relative left testis weight (FIG. 5)” value (left and right testis) was “dose dependent reduction” and the “relative right testis weight (FIG. 4)” value (left and right testis) was “dose dependent reduction”. For the same compound, the IC50 (PNt2 cells) was 17 µM, the IC50 (PWR-1E cells) was 5.3 µM and the “histomorphology of the prostate” value (mouse prostate [1]; oral daily for 5 days, 2, 5, 20 mg/kg) was “dose-dependent disorganization of the epithelial cells”. The “absolute entire prostate weight” value (mouse prostate [1]; [3]) was “reduced”, the “relative entire prostate weight” value (mouse prostate [1]; [3]) was “reduced” and the “absolute dorsal prostate weight (FIG. 10)” value (mouse prostate [2]) was “dose dependent reduction”. For the same compound, the “absolute ventral prostate weight (FIG. 9)” value (mouse prostate [2]) was “dose dependent reduction”, the “absolute whole prostate weight (FIG. 11)” value (mouse prostate [2]) was “dose dependent reduction” and the prostate weight (mouse prostate [2]) was “dose dependent reduction”. For the same compound, the “relative dorsal prostate weight (FIG. 7)” value (mouse prostate [2]) was “dose dependent reduction”, the “relative ventral prostate weight (FIG. 8)” value (mouse prostate [2]) was “dose dependent reduction” and the “relative whole prostate weight (FIG. 6)” value (mouse prostate [2]) was “dose dependent reduction”. The “apoptosis of prostate cells (TUNEL assay)” value (mouse prostate cells) was “more apoptotic” and the “cell cycle inhibition (PCNA assay)” value (mouse prostate cells) was “greater cell cycle inhibition”.

— patent publication US20070015771A1, “Lonidamine analogs” (Threshold pharmaceuticals, Inc., priority 2004, published 2007)
